Key:
[1] = target: Human neutrophil collagenase (HNC) (Homo sapiens, UniProt P22894); assay: Human Neutrophil Collagenase Assay; format: biochemical; conditions: fluorogenic peptide substrate, 96-well plate in duplicate; reference inhibitor
[2] = target: Human fibroblast stromelysin (HFS) (Homo sapiens, UniProt P08254); assay: biochemical
Sequence of Human fibroblast stromelysin (HFS) (P08254 100-477): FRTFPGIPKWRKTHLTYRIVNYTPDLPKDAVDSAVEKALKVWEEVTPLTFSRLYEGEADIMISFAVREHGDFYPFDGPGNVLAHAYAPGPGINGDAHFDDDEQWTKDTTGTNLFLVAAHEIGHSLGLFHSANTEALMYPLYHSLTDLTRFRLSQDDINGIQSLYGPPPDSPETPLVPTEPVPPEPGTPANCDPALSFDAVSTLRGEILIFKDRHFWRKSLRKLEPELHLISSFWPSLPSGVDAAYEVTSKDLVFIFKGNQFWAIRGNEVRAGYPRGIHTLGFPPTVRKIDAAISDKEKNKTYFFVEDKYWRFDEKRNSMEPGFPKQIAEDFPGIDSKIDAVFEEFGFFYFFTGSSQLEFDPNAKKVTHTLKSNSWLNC

Sequence of Human neutrophil collagenase (HNC) (P22894 101-467): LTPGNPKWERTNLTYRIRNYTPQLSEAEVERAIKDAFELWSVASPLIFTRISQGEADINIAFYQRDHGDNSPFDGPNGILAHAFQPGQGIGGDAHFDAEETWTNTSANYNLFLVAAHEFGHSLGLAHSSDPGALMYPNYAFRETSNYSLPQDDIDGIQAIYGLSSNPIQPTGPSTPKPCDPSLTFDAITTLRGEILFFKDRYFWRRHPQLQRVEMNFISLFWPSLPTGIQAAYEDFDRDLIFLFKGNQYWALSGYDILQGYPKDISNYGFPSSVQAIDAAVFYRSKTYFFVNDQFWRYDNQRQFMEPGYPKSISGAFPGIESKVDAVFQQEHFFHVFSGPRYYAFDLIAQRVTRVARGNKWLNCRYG

- Ki [1]: 0.722 µM
- Ki [2]: 0.722 µM
SMILES: CCCCC[C@H](CC(=O)NO)C(=O)N[C@H](C(=O)N1CCC[C@H]1CO)C(C)C [Actinonin]

Source: patent US7022690B2, “Carboxylic acid substituted heterocycles, derivatives thereof and methods of use” (Amgen Inc., priority 1997, dated 2006)
